The results in this text go back to US12643880B2, “Heterobifunctional molecules as TEAD inhibitors” (Genentech, Inc., priority 2020, dated 2026).

Assay type in all cases: binding
What all share (conditions): His-tagged TEAD protein, biotinylated lipid pocket probe

In one assay the target is TEAD4 (Homo sapiens, UniProt Q15561). Kind of assay: TEAD lipid pocket TR-FRET (Lipid HTRF) competition assay, TEAD4. Here is the method: (§1) His-tagged TEAD proteins are pre-incubated with TEAD project compounds for 30 minutes at room temperature. Biotinylated lipid pocket probes are then added to the TEAD/Compound mixture and incubated for 60 minutes at room temperature. The lipid pocket probe competes with the test compound for the TEAD lipid pocket until equilibrium is reached. After 60 minutes, Europium labelled anti-His (Perkin Elmer #ADO 110) and XL665 labelled streptavidin (CIS Bio 610SAXAC) are added to the TEAD/test compound/lipid pocket mixture and incubated for 30 minutes. TR-FRET values are then measured using an EnVision multi-label plate reader (Perkin Elmer Cat #2104-1A.) If the lipid pocket probe binds to TEAD as expected, a TR-FRET signal results from the proximity of Tani-His Eu and XL665. If a TEAD lipid pocket binder such as binds and displaces the lipid pocket probe, the disruption of the TEAD:probe interaction results in a decrease in TR-FRET signal. The potency of compounds as TEAD lipid pocket binders is determined by IC50 value generated using a non-linear 4 parameter curve fit. This assay format enables more sensitive determinations of lipid pocket affinity than the aforementioned TEAD lipid pocket FP assay due to the decreased concentration of TEAD protein required for the TR-FRET assay format.
TEAD4, sequence (Q15561 whole entry, species assumed): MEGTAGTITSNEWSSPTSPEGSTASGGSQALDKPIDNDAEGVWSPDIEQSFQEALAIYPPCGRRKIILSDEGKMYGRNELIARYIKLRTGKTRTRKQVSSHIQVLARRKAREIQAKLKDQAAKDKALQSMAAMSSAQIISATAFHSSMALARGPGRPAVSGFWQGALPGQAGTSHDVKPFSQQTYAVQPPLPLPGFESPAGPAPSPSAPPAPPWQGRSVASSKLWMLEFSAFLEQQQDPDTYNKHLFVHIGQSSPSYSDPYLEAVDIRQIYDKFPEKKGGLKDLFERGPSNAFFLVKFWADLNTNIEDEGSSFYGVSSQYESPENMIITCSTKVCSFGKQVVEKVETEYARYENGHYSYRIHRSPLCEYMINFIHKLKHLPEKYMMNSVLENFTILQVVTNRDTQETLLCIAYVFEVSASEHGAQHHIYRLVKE
(In general: Time-resolved FRET reads energy transfer from a long-lived donor to a nearby acceptor.)

The next assay concerns the target TEAD3 (Homo sapiens, UniProt Q99594). Kind of assay: TEAD lipid pocket TR-FRET (Lipid HTRF) competition assay, TEAD3. Here is the method:
as §1

For the next assay, the target named is TEAD1 (Homo sapiens, UniProt P28347). The assay can be described thus: TEAD lipid pocket TR-FRET (Lipid HTRF) competition assay, TEAD1. As to the method:
as §1

The target in the next assay is TEAD2 (Homo sapiens, UniProt Q15562). Kind of assay: TEAD lipid pocket TR-FRET (Lipid HTRF) competition assay, TEAD2. As to the method: as §1
TEAD2, sequence (Q15562 whole entry, species assumed): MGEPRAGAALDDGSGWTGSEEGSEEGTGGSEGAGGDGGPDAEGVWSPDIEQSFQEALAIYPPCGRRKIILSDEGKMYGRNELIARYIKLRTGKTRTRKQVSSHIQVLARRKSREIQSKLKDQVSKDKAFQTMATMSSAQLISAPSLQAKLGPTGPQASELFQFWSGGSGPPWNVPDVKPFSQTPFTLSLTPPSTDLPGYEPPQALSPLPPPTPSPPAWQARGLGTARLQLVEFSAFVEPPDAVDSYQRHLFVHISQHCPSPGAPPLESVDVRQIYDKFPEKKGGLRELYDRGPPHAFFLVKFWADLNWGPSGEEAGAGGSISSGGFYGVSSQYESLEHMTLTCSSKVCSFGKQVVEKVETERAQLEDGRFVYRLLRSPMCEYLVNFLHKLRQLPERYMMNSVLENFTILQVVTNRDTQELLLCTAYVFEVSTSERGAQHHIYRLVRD

TEAD3, sequence (Q99594 whole entry, species assumed): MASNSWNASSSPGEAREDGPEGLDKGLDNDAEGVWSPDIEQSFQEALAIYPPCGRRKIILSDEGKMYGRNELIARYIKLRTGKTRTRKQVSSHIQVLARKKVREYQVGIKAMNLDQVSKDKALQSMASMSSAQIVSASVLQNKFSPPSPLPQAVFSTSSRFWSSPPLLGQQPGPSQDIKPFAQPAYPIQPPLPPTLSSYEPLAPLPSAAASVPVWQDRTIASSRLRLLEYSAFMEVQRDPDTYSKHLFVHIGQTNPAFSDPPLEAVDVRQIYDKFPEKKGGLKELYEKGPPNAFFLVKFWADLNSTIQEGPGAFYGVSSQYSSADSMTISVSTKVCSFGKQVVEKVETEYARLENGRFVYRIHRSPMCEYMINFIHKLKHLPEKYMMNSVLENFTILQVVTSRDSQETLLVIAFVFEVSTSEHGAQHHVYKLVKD
TEAD1, sequence (P28347 whole entry, species assumed): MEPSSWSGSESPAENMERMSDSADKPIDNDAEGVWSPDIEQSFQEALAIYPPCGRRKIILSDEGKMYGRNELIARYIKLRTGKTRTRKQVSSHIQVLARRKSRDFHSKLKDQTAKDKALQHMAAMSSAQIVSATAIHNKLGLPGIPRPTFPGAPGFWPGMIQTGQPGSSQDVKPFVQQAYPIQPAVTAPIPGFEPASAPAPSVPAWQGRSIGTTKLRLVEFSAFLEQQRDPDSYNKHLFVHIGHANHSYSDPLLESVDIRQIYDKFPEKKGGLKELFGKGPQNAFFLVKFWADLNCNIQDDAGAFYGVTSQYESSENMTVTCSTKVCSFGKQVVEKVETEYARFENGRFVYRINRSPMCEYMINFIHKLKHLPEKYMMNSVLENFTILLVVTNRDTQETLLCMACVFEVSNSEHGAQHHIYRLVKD

A word on the IC50: it is the midpoint of a concentration-inhibition curve. A high value points to a need for much substance. In the case of `COc1cnc(C(=O)NCc2cccc(CC(=O)N(C)CCCCOc3ccc4c(c3)C(=O)N(C3CCC(=O)NC3=O)C4=O)c2)cc1/C=C/[C@H]1CC[C@H](C(F)(F)F)CC1` (stereo partly drawn) [Compound 1, N-(3-(2-((4-((2-(2,6-dioxopiperidin-3-yl)-1,3-dioxoisoindolin-5-yl)oxy)butyl)(methyl)amino)-2-oxoethyl)benzyl)-5-methoxy-4-((E)-2-(trans-4-(trifluoromethyl)cyclohexyl)vinyl)picolinamide], the IC50 on TEAD4 is 90 nM; on TEAD3, 6 µM; on TEAD1, 650 nM; on TEAD2, 230 nM.

For the molecule `COc1cnc(C(=O)NCc2cccc(CC(=O)N(C)CCCCCCOc3ccc4c(c3)C(=O)N(C3CCC(=O)NC3=O)C4=O)c2)cc1/C=C/[C@H]1CC[C@H](C(F)(F)F)CC1` (stereo partly drawn) [Compound 2, N-(3-(2-((6-((2-(2,6-Dioxopiperidin-3-yl)-1,3-dioxoisoindolin-5-yl)oxy)hexyl)(methyl)amino)-2-oxoethyl)benzyl)-5-methoxy-4-((E)-2-(trans-4-(trifluoromethyl)cyclohexyl)vinyl)picolinamide], the IC50 at TEAD4 is 400 nM; on TEAD3, 18.8 µM; on TEAD1, 5750 nM; on TEAD2, 1150 nM.

For `COc1cnc(C(=O)NCc2cccc(CC(=O)N(C)CCOCCOCCOCCOc3ccc4c(c3)C(=O)N(C3CCC(=O)NC3=O)C4=O)c2)cc1/C=C/[C@H]1CC[C@H](C(F)(F)F)CC1` (stereo partly drawn) [Compound 3, N-(3-(14-((2-(2,6-Dioxopiperidin-3-yl)-1,3-dioxoisoindolin-5-yl)oxy)-3-methyl-2-oxo-6,9,12-trioxa-3-azatetradecyl)benzyl)-5-methoxy-4-((E)-2-(trans-4-(trifluoromethyl)cyclohexyl)vinyl)picolinamide], the IC50 stood at 60 nM on TEAD4, 4.8 µM on TEAD3, 300 nM on TEAD1 and 130 nM at TEAD2.

For `COc1cnc(C(=O)NCc2cccc(CC(=O)N(C)CCOCCOCCOCCOCCOc3ccc4c(c3)C(=O)N(C3CCC(=O)NC3=O)C4=O)c2)cc1/C=C/[C@H]1CC[C@H](C(F)(F)F)CC1` (stereo partly drawn) [Compound 4, N-(3-(17-((2-(2,6-Dioxopiperidin-3-yl)-1,3-dioxoisoindolin-5-yl)oxy)-3-methyl-2-oxo-6,9,12,15-tetraoxa-3-azaheptadecyl)benzyl)-5-methoxy-4-((E)-2-(trans-4-(trifluoromethyl)cyclohexyl)vinyl)picolinamide], the IC50 at TEAD4 is 70 nM; at TEAD3 it was 1.83 µM; on TEAD1 it was 280 nM; on TEAD2, 200 nM.

`COc1cnc(C(=O)NCc2cccc(CC(=O)N(C)CCOCCOc3ccc4c(c3)C(=O)N(C3CCC(=O)NC3=O)C4=O)c2)cc1/C=C/[C@H]1CC[C@H](C(F)(F)F)CC1` (stereo partly drawn) [Compound 5, N-(3-(2-((2-(2-((2-(2,6-Dioxopiperidin-3-yl)-1,3-dioxoisoindolin-5-yl)oxy)ethoxy)ethyl)(methyl)amino)-2-oxoethyl)benzyl)-5-methoxy-4-((E)-2-(trans-4-(trifluoromethyl)cyclohexyl)vinyl)picolinamide]: the IC50 on TEAD4 stood at 110 nM; at TEAD3, 4 µM; at TEAD1 it was 510 nM; on TEAD2 it was 180 nM.

On to `COc1cnc(C(=O)NCc2cccc(CC(=O)N(C)CCOCCOCCOc3ccc4c(c3)C(=O)N(C3CCC(=O)NC3=O)C4=O)c2)cc1/C=C/[C@H]1CC[C@H](C(F)(F)F)CC1` (stereo partly drawn) [Compound 6, N-(3-(2-((2-(2-(2-((2-(2,6-Dioxopiperidin-3-yl)-1,3-dioxoisoindolin-5-yl)oxy)ethoxy)ethoxy)ethyl)(methyl)amino)-2-oxoethyl)benzyl)-5-methoxy-4-((E)-2-(trans-4-(trifluoromethyl)cyclohexyl)vinyl)picolinamide], for which the half-maximal inhibitory concentration (IC50) is 70 nM at TEAD4, 30 µM on TEAD3, 1150 nM on TEAD1 and 180 nM at TEAD2.

In the case of `COc1cnc(C(=O)NCc2cccc(CC(=O)N(C)CCOCCOCCOCCOCCOCCOc3ccc4c(c3)C(=O)N(C3CCC(=O)NC3=O)C4=O)c2)cc1/C=C/[C@H]1CC[C@H](C(F)(F)F)CC1` (stereo partly drawn) [Compound 7, N-(3-(20-((2-(2,6-Dioxopiperidin-3-yl)-1,3-dioxoisoindolin-5-yl)oxy)-3-methyl-2-oxo-6,9,12,15,18-pentaoxa-3-azaicosyl)benzyl)-5-methoxy-4-((E)-2-(trans-4-(trifluoromethyl)cyclohexyl)vinyl)picolinamide], the IC50 at TEAD4 was 60 nM; at TEAD3, 2 µM; on TEAD1, 360 nM; on TEAD2, 110 nM.

For the molecule `COc1cnc(C(=O)NCc2cccc(CC(=O)N(C)CCCOc3ccc4c(c3)C(=O)N(C3CCC(=O)NC3=O)C4=O)c2)cc1/C=C/[C@H]1CC[C@H](C(F)(F)F)CC1` (stereo partly drawn) [Compound 8, N-(3-(2-((3-((2-(2,6-Dioxopiperidin-3-yl)-1,3-dioxoisoindolin-5-yl)oxy)propyl)(methyl)amino)-2-oxoethyl)benzyl)-5-methoxy-4-((E)-2-(trans-4-(trifluoromethyl)cyclohexyl)vinyl)picolinamide], the IC50 at TEAD4 was found to be 180 nM; at TEAD3, 8.2 µM; at TEAD1 it was 720 nM; on TEAD2, 290 nM.

For `COc1cnc(C(=O)NCc2cccc(CC(=O)N(C)CCCCCCCOc3ccc4c(c3)C(=O)N(C3CCC(=O)NC3=O)C4=O)c2)cc1/C=C/[C@H]1CC[C@H](C(F)(F)F)CC1` (stereo partly drawn) [Compound 9, N-(3-(2-((7-((2-(2,6-Dioxopiperidin-3-yl)-1,3-dioxoisoindolin-5-yl)oxy)heptyl)(methyl)amino)-2-oxoethyl)benzyl)-5-methoxy-4-((E)-2-(trans-4-(trifluoromethyl)cyclohexyl)vinyl)picolinamide], the IC50 at TEAD4 is 320 nM; at TEAD3 it was 5.37 µM; at TEAD1, 1300 nM; on TEAD2, 650 nM.

Take `COc1cnc(C(=O)NCc2cccc(CC(=O)N(C)CCCCCOc3ccc4c(c3)C(=O)N(C3CCC(=O)NC3=O)C4=O)c2)cc1/C=C/[C@H]1CC[C@H](C(F)(F)F)CC1` (stereo partly drawn) [Compound 10, N-(3-(2-((5-((2-(2,6-Dioxopiperidin-3-yl)-1,3-dioxoisoindolin-5-yl)oxy)pentyl)(methyl)amino)-2-oxoethyl)benzyl)-5-methoxy-4-((E)-2-(trans-4-(trifluoromethyl)cyclohexyl)vinyl)picolinamide]: the IC50 was found to be 470 nM at TEAD4, 50 µM on TEAD3, 18800 nM at TEAD1 and 4800 nM at TEAD2.

As for `COc1cnc(C(=O)NCc2cccc(CC(=O)NCCCCC(=O)N[C@H](C(=O)N3C[C@H](O)C[C@H]3C(=O)NCc3ccc(-c4scnc4C)cc3)C(C)(C)C)c2)cc1/C=C/[C@H]1CC[C@H](C(F)(F)F)CC1` [Compound 11, N-(3-(2-((5-(((S)-1-((2S,4R)-4-Hydroxy-2-((4-(4-methylthiazol-5-yl)benzyl)carbamoyl)pyrrolidin-1-yl)-3,3-dimethyl-1-oxobutan-2-yl)amino)-5-oxopentyl)amino)-2-oxoethyl)benzyl)-5-methoxy-4-((E)-2-(trans-4-(trifluoromethyl)cyclohexyl)vinyl)picolinamide], the IC50 at TEAD4 came to 170 nM; at TEAD3 it was 2.53 µM; on TEAD1, 700 nM; on TEAD2, 370 nM.
